Test results published in patent US6969590B2, “Use of a polypeptide for treatment of pruritus in animals” (Zengen, Inc., priority 2001, dated 2005).

Test system: IL-6
Assay: IL-6 production by activated N9 microglia
Type: cell-based, murine
Details: microglia stimulated with LPS+IFN-γ for 24 hr, micromolar concentrations
Method: The N9 clone of murine microglial cells was obtained by immortalization of embryonic brain cultures with the 3RV retrovirus carrying an activated v-myconcogene. N9 cells were cultured in T-75-cm^2 culture flasks (Corning, Cambridge, Mass.) and maintained at 37° C. in a humidified incubator under 5% CO2 atmosphere in RPMI 1640 supplemented with 2 mM L-glutamine, 50 U/mL penicillin G, 50 μg/mL streptomycin sulfate (GIBCO-BBL, Paisley, UK), and 10% heat-inactivated fetal bovine serum (FBS, Hyclone Lab, Inc., Logan, Utah) until experiments were performed. Cells were used between the first and the tenth passage.
Sub-confluent microglial cells were washed twice with phosphate-buffered saline (PBS) and incubated with trypsin 0.025% and ethylenediaminetetraacetate (EDTA) 0.02% without calcium and magnesium for 3 min. at 37° C. to detach the cells from the culture flask. Cells were then resuspended in medium and incubated in 24-well tissue-culture plates at a concentration of 2×10^5 cells/mL for 16 h in a humidified incubator (37° C., 5% CO2). Growth medium was removed and cell monolayers were stimulated with 10 ng/mL lipopolysaccharide (LPS, from Escherichia coli 055:B5, Sigma Chemical Co., St. Louis, Mo.) plus 1 U/ml, murine IFN-γ (Sigma). To test effects of melanocortin peptides, concentrations (1, 10, 25, 50 and 100 μM) of α-MSH (1-13), α-MSH (11-13), and ACTH (1-24) (Sigma) were dissolved in medium and added to wells 10 min before treatment with LPS+IFN-γ. […] Viability of cells was assessed by trypan blue exclusion for each experimental condition; it was consistently >98%. […]
TNF-α bioactivity was measured in supernatants of cell cultures by standard cytotoxicity assay using L929 cells and recombinant human TNF-α (Sigma) as standard. […] IL-6 was measured using a commercial murine enzyme-linked immunosorbent assay (ELISA: RPN 2714, Amersham, Little Chalfont, UK).
Effects of melanocortin peptides on cytokine and NO production were evaluated by repeated measures analysis of variance followed by Dunnet's test for specific comparisons. […]

Sequence: SYSMEHFRWGKPV [α-MSH (1-13)]
- reduction of production of IL-6: 31%
